Holding throughout (assay type): functional, cell-based
For experiment [1], the system named is MDA-MB-231. Description: Antiproliferative activity against human MDA-MB-231 cells assessed inhibition of cell growth incubated for 72 hrs by alamar blue assay. Particulars: MDA-MB-231, 72 h. (In general: The colour change of resazurin is a common sign of viable cells or microbes.)
Experiment [2] relates to HCT-116. Put plainly: Antiproliferative activity against human HCT-116 cells assessed inhibition of cell growth incubated for 72 hrs by alamar blue assay. To be noted: HCT-116, 72 h.
For experiment [3], the system named is MCF7. Put plainly: Antiproliferative activity against human MCF7 cells assessed inhibition of cell growth incubated for 72 hrs by alamar blue assay. Particulars: MCF7, 72 h.

Some results are limits rather than exact numbers.

What is called IC50 is the point on the concentration scale where inhibition reaches its midpoint. A high value points to weaker potency in that assay. For `COC(=O)N[C@H](C)[C@@H](O)[C@@H](C)[C@@H]1OC(=O)/C=C/C=C(C)\C=C\[C@]2(C)CCC=C[C@@H]2/C=C(C)/C=C/[C@H]1C`, the IC50 in experiment [1] is over 2000 nM; in experiment [2] it was over 5000 nM; in experiment [3], over 2000 nM.
Turning to `CC1=C/C=C/C(=O)O[C@@H]([C@H](C)[C@H](O)[C@@H](C)NS(C)(=O)=O)[C@H](C)/C=C/C(C)=C/[C@H]2C=CCC[C@@]2(C)\C=C\1`, the half-maximal inhibitory concentration (IC50) turned out to be 1010 nM in experiment [1], 3360 nM in experiment [2] and 1120 nM in experiment [3].
For the compound `CC1=C/C=C/C(=O)O[C@@H]([C@H](C)[C@H](O)[C@@H](C)NC(=O)C(C)C)[C@H](C)/C=C/C(C)=C/[C@H]2C=CCC[C@@]2(C)\C=C\1`, the IC50 in experiment [1] was 64 nM; in experiment [2], 47.5 nM; in experiment [3], 41.4 nM.
Regarding `CNC(=O)N[C@H](C)[C@@H](O)[C@@H](C)[C@@H]1OC(=O)/C=C/C=C(C)\C=C\[C@]2(C)CCC=C[C@@H]2/C=C(C)/C=C/[C@H]1C`, the results for the IC50 in experiment [1], in experiment [2] and in experiment [3] were 104 nM, 136 nM and 88.5 nM, respectively.
`CC(=O)N[C@H](C)[C@@H](O)[C@@H](C)[C@@H]1OC(=O)/C=C/C=C(C)\C=C\[C@]2(C)CCC=C[C@@H]2/C=C(C)/C=C/[C@H]1C` yielded a concentration for half-maximal inhibition (IC50) in experiment [2] of 88.2 nM.
